Assay results published in patent US20050032688A1, “Use of angiotensin II fragments and analogs thereof in tissue repair” (University of Southern California, priority 1993, published 2005).
Entries after “also recorded” stand apart in the source; their conditions may differ. Read-outs that look alike come from different tables or passages of the source. Ends that are not written are not given here.

Columns and labels:
[1] = test system: porcine aortic endothelial cells; conditions: cited from earlier work
[2] = test system: motility, stereotypy and learning of conditioned avoidance responses; conditions: injected in the lateral cerebral ventricle, rats; cited from earlier work
[3] = test system: neurons in the paraventricular nucleus; conditions: cited from earlier work
water intake = conditions: injected into the anterior diencephalons in the rat; cited from earlier work
[4] = test system: porcine coronary artery rings; conditions: perhaps through nitric oxide; cited from earlier work
[5] = test system: rat glomerulus preparations; conditions: through the AT1 receptor; cited from earlier work
blood pressure [6] = conditions: cited from earlier work
[7] = in contrast to AII; cited from earlier work
rat mesangial cells = conditions: through the AT1 receptor; cited from earlier work
[8] = test system: rat isolated nodose ganglion; conditions: cited from earlier work
human astrocytes = conditions: cited from earlier work
[9] = test system: porcine vascular smooth muscle cells; conditions: cited from earlier work
blood pressure [10] = conditions: in vivo; cited from earlier work
rat adrenal medulla = conditions: cited from earlier work
wound tissue = conditions: application to wound tissue; cited from earlier work
[11] = test system: baroreceptor-heart-reflex; conditions: in vivo; cited from earlier work
[12] = test system: full thickness dermal wounds; experiment: Wound closure and granulation tissue in full thickness dermal wounds, carboxymethyl cellulose vehicle (Example 3); assay type: in vivo, Female Sprague Dawley rats; conditions: tested fragments of AII
Description: Female Sprague Dawley rats, 175-200 g, were obtained from Simonsen Laboratories, Gilroy, Calif. On the day of surgery, the rats received intramuscular ketamine/rompum anesthesia prior to preparation for surgery. The rats were shaved and scrubbed with betadine. Two 1.5×1.5 cm full thickness dermal wounds were created on the dorsal surface of the rat. Following excision of the skin, the size of the wound was outlined on a glass slide and the medicament was administered ini 100 μl 10% low viscosity carboxymethyl cellulose (Sigma). The test materials were administered in a randomized fashion; all materials were tested at 100 μg/wound. Controls were treated with vehicle only. After administration of the materials, the rats were bandaged and allowed to recover from anesthesia. On days 1-4 after surgery, the rats were treated with an additional 100 μg of peptide formulation. At days 2, 4, 7 and 9, the area of the skin wounds were measured under methoxyflurane anesthesia (commercially available as Metofane from Pittman-Moore, Mundelein, Ill.). The area of the wound was determined by: (1) tracing the wound shape onto graph paper (1×1 mm squares); (2) cutting out the shape; (3) weighing the paper and comparing the weight with a 1.5×1.5 cm paper cutout; and (4) counting the number of squares. In addition, on days 2, 4 and 7, the area of granulation tissue was similarly determined.

blood pressure [13] = conditions: intracerebroventricular infusion in the rat; concentrations 1000× higher than that of AII that increased blood pressure; cited from earlier work

Substance: AI: a decapeptide called angiotensin I which is converted to angiotensin II (DRVYIHPFHL; Angiotensin-1; UniProt P01019 25-34, looked up)
- release of prostaglandin E2 and 12 [1]: stimulated

Substance: Arg-Val-Tyr-Ile-His (RVYIH; printed: Arg-Val-Tyr-Ile-His) [AII(2-6)]
- motility, stereotypy and learning of conditioned avoidance responses (psychotropic activities) [2]: not active

Substance: Arg-Val-Tyr-Ile-His-Pro (RVYIHP) [AII(2-7)]
- excitation of neurons [3]: inactive

Substance: Asp-Arg-Val-Tyr (DRVY) [AII(1-4)]
- effect on water intake (water intake): only a slight effect

Substance: Asp-Arg-Val-Tyr-Ile-His-Pro (DRVYIHP) [AII(1-7)]
- dilation of coronary artery rings [4]: dilates
- formation of cAMP in response to histamine, serotonin and parathyroid hormone [5]: did not have this effect
- excitation of neurons [3]: weaker
- excitation of neurons ([3]; listed as Ang(1-7)): excited
- dose at which pressor effects on blood pressure occur, relative to AII (blood pressure [6]; depending upon the model tested and route of administration): 10000-100000 times the dose of AII
- depressor effect on blood pressure (blood pressure [6]; may be mediated through prostanoid synthesis): depressor effect
- aldosterone release [7]: does not cause
- catecholamine release [7]: does not cause
- dipsogenic effect [7]: not dipsogenic
- choline production (rat mesangial cells): very weak effects
- depolarization of nodose ganglion [8]: does not
- prostaglandin release (human astrocytes): increases
- release of prostaglandin E2 and 12 [1]: stimulated
- prostaglandin release [9]: increases
- effect on water intake (water intake): completely inactive
- amount required relative to AII to get a comparable pressor response (blood pressure [10]): about 10000 ×
- depressor effect (blood pressure [10]): long depressor effect
- pressor effect (blood pressure [10]): weak pressor

Substance: Asp-Arg-Val-Tyr-Ile-His-Pro-Phe (DRVYIHPF) [AII]
- dilation of coronary artery rings [4]: not observed
- formation of cAMP in response to histamine, serotonin and parathyroid hormone [5]: inhibited
- excitation of neurons [3]: excited
- evoked neuronal norepinephrine release (rat adrenal medulla): biphasic effect
- spontaneous neuronal norepinephrine release (rat adrenal medulla): increasing
- rate of wound healing (wound tissue): significantly increases
- choline production (rat mesangial cells): stimulates
- depolarization of nodose ganglion [8]: causes depolarization
- prostaglandin release (human astrocytes): increases
- release of intracellular Ca2+ (human astrocytes): increases
- release of prostaglandin E2 and 12 [1]: did not have this effect
- prostaglandin release [9]: increases
- release of intracellular Ca2+ [9]: increases
- sensitivity of the baroreceptor-heart-reflex [11]: enhances
- motility, stereotypy and learning of conditioned avoidance responses (psychotropic activities) [2]: increased

Substance: DRVYIH [AII(1-6)]
- choline production (rat mesangial cells): very weak effects
- motility, stereotypy and learning of conditioned avoidance responses (psychotropic activities) [2]: not active

Substance: His-Pro-Phe (HPF) [AII(6-8)]
- effectiveness in wound healing [12]: not to be effective

Substance: Ile-His-Pro-Phe (IHPF) [AII(5-8)]
- effect on blood pressure (blood pressure [13]): minimal effect
- effect on water intake (water intake): only a slight effect

Substance: Try-Ile-His-Pro-Phe (YIHPF) [AII(4-8)]
- effectiveness in wound healing [12]: not to be effective; also recorded: ineffective
- effect on blood pressure (blood pressure [13]): minimal effect
- effect on water intake (water intake): only a slight effect

Substance: Val-Tyr-Ile-His-Pro (VYIHP) [AII(3-7)]
- depressor effect (blood pressure [10]): no depressor effect
- pressor effect (blood pressure [10]): less of a pressor effect than AII(1-7)

Substance: Val-Tyr-Ile-His-Pro-Phe (VYIHPF) [AII(3-8)]
- dilation of coronary artery rings [4]: not observed
